≈ marks a conversion by molar mass, not a printed value.
Columns and labels:
[1] = tested on: Bacillus subtilis; assay: Antibacterial activity against Bacillus subtilis MTCC 121 assessed as minimum bactericidal concentration; type: functional
[2] = tested on: Bacillus subtilis; assay: Antibacterial activity against Bacillus subtilis MTCC 121 assessed as bacterial growth inhibition; type: functional
[3] = tested on: Pseudomonas aeruginosa; assay: Antibacterial activity against Pseudomonas aeruginosa MTCC 2453 assessed as bacterial growth inhibition; type: functional
[4] = tested on: Staphylococcus aureus; assay: Antibacterial activity against Staphylococcus aureus MTCC 96 assessed as minimum bactericidal concentration; type: functional
[5] = tested on: Micrococcus luteus; assay: Antibacterial activity against Micrococcus luteus MTCC 2470 assessed as bacterial growth inhibition; type: functional
[6] = tested on: Staphylococcus aureus; assay: Antibacterial activity against Staphylococcus aureus MLS-16 MTCC 2940 assessed as minimum bactericidal concentration; type: functional
[7] = tested on: Staphylococcus aureus; assay: Antibacterial activity against Staphylococcus aureus MLS-16 MTCC 2940 assessed as bacterial growth inhibition; type: functional
[8] = tested on: Escherichia coli; assay: Antibacterial activity against Escherichia coli MTCC 739 assessed as bacterial growth inhibition; type: functional
[9] = tested on: Raoultella planticola; assay: Antibacterial activity against Raoultella planticola MTCC 530 assessed as bacterial growth inhibition; type: functional; conditions: Klebsiella planticola
[10] = Cytotoxicity against human HDF cells assessed as reduction in cell viability by MTT assay; type: toxicity, cell-based; conditions: HDF cells (NHDF cell line)
[11] = tested on: MDA-MB-231; assay: cells; conditions: Homo sapiens
[12] = tested on: PANC-1; assay: Antiproliferative activity against human PANC-1 cells assessed as reduction in cell viability by MTT assay; type: functional, cell-based; conditions: read-out: IC50
[13] = tested on: Mycobacterium tuberculosis; assay: Antitubercular activity against Mycobacterium tuberculosis H37Rv assessed as bacterial growth inhibition at 100 ug/ml; type: functional
[14] = tested on: Escherichia coli; assay: Antibacterial activity against Escherichia coli MTCC 443 assessed as bacterial growth inhibition by broth microdilution method; type: functional
[15] = tested on: Mycobacterium tuberculosis; assay: Antitubercular activity against Mycobacterium tuberculosis H37Rv assessed as bacterial growth inhibition at 250 ug/ml; type: functional
[16] = tested on: Mycobacterium tuberculosis; assay: Antimicrobial activity against Mycobacterium tuberculosis H37Rv assessed reduction bacterial growth at 100 ug/ml incubated for 24 hrs by Lowensteine-Jensen method; type: functional; set-up: scale not given: the % may be the effect or the level left; conditions: dose 100 µg/ml
[17] = tested on: Plasmodium falciparum; assay: microbe, parasite or virus in culture
[18] = molecular target: Alpha-glucosidase (Mus musculus); assay: Inhibition of mouse alpha-glucosidase assessed as decrease in release of p-nitrophenol using pNPG as substrate preincubated for 10 mins followed by substrate addition and measured after 30 mins by spectroscopic analysis
[19] = molecular target: Alpha-glucosidase (Saccharomyces cerevisiae S288c, UniProt P53341+P38158+P07265); assay: Inhibition of Saccharomyces cerevisiae alpha-glucosidase assessed as decrease in release of p-nitrophenol using pNPG as substrate incubated for 10 mins by spectroscopic analysis; type: protein assay

SMILES | MBC [1] [µg/mL] | MIC [2] [µg/mL] | MIC [3] [µg/mL] | MBC [4] [µg/mL] | MIC [5] [µg/mL] | MBC [6] [µg/mL] | MIC [7] [µg/mL] | MIC [8] [µg/mL] | MIC [9] [µg/mL] | further results
Cc1ccc(C2c3c(Nc4ccc([N+](=O)[O-])cc4)ncnc3Oc3c2c(=O)oc2ccccc32)cc1 (stereo not drawn) | 15.6 (≈ 32.6 µM) | 15.6 (≈ 32.6 µM) | 15.6 (≈ 32.6 µM) | 15.6 (≈ 32.6 µM) | 15.6 (≈ 32.6 µM) | 15.6 (≈ 32.6 µM) | 15.6 (≈ 32.6 µM) | 15.6 (≈ 32.6 µM) | 15.6 (≈ 32.6 µM) | –
N#CC1=C(N)Oc2[nH]c(=O)[nH]c(=O)c2C12c1cc(Br)ccc1-n1c2nc2ccccc2c1=O (stereo not drawn) | – | – | – | – | – | – | – | – | – | IC50 [10]: > 100 µM; IC50 [11]: 10.9 µM; IC50 [12]: 14.2 µM
CCOC(=O)C1=C(N)Oc2[nH]c(=O)[nH]c(=O)c2C1c1c(C)nn(-c2ccccc2)c1-n1ccnc1 (stereo not drawn) | – | – | – | – | – | – | – | – | – | inhibition at 100 µg/mL [13]: 30%; MIC [14]: 100 µg/mL (≈ 210 µM); inhibition at 250 µg/mL [15]: 37%; Activity [16]: 92%; IC50 [17]: 0.97 µg/mL (≈ 2.04 µM)
Cc1ccc(C2c3c(Nc4cccc([N+](=O)[O-])c4)ncnc3Oc3c2c(=O)oc2ccccc32)cc1 (stereo not drawn) | 15.6 (≈ 32.6 µM) | 31.2 (≈ 65.2 µM) | 15.6 (≈ 32.6 µM) | 15.6 (≈ 32.6 µM) | 15.6 (≈ 32.6 µM) | 15.6 (≈ 32.6 µM) | 15.6 (≈ 32.6 µM) | 15.6 (≈ 32.6 µM) | 15.6 (≈ 32.6 µM) | –
COc1cc(/C=C/C(=O)C2=C(/C=C/c3ccc(O)c(OC)c3)Oc3[nH]c(=O)[nH]c(=O)c3C2c2c(Cl)cccc2Cl)ccc1O (stereo not drawn) | – | – | – | – | – | – | – | – | – | IC50 [18]: 46.04 µM; IC50 [19]: 27.6 µM

— ChEMBL document CHEMBL5241112, “Insights into the recent progress in the medicinal chemistry of pyranopyrimidine analogs” (RSC Med Chem, 2022)
